Target: T1, CK1α (Homo sapiens, UniProt P48729+Q96SW2)
T1 construct: expressed in transfected cells
Test: CK1α ePL degradation assay in MDS-L cells
Assay type: cell-based
Settings: MDS-L cells expressing ePL-tagged CK1α; for DC50: concentration giving 50% CK1α degradation vs DMSO control; for Y: lowest measured CK1α level normalized to DMSO control
Experimental: The following is an example of an assay that can be used to determine the CK1α degradation activity of Isoindolinone Carboxamide Compounds in a cell line, for example, the MDS-L cell line.
Compounds were dispensed by an acoustic dispenser (ATS acoustic transfer system from EDC Biosystems) into a 384-well in a 10 point dose-response curve using 3-fold dilutions starting at 10 μM and going down to 0.0005 μM in DMSO. […] Assay plates were incubated at 37° C. with 5% CO2 for the indicated times. At the different time points, 25 μL of the InCELL Hunter™ Detection Reagent Working Solution (catalog number 96-0002, DiscoverX, Fremont, Calif.) was added to each well and incubated at RT for 30 min protected from light. After 30 min, luminescence was read on a PHERAstar luminometer (BMG LABTECH, Cary, N.C.).
CK1α levels in compound-treated wells were normalized to that of DMSO control and expressed as percent of control (PoC) (y).
The lowest measured CK1α level normalized to DMSO control in response to compound treatment, termed Y value, was used to characterize the compound-mediated CK1α degradation efficiency.

T1 sequence (P48729 whole entry): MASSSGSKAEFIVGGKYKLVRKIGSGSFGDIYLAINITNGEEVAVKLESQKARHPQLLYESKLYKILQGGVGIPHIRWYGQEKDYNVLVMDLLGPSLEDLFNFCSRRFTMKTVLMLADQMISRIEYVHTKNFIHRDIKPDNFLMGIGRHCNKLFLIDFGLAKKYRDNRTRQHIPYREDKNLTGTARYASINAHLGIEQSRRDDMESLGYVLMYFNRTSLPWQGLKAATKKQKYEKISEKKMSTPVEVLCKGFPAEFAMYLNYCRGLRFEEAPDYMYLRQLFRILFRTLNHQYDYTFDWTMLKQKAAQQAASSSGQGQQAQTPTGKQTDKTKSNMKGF
T1 sequence (Q96SW2 whole entry): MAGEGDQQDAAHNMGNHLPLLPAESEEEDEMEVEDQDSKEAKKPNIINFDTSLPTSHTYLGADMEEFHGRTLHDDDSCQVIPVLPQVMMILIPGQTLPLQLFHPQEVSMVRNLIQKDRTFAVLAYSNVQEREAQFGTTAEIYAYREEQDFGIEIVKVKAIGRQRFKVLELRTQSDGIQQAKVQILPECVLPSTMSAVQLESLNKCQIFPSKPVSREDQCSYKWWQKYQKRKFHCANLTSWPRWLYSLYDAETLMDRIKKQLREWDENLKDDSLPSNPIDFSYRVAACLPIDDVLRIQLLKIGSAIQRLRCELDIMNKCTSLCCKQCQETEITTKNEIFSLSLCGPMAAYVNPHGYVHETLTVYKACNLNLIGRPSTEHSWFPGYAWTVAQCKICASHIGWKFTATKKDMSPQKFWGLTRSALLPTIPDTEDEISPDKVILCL
T1 sequence (Q16531 whole entry partner): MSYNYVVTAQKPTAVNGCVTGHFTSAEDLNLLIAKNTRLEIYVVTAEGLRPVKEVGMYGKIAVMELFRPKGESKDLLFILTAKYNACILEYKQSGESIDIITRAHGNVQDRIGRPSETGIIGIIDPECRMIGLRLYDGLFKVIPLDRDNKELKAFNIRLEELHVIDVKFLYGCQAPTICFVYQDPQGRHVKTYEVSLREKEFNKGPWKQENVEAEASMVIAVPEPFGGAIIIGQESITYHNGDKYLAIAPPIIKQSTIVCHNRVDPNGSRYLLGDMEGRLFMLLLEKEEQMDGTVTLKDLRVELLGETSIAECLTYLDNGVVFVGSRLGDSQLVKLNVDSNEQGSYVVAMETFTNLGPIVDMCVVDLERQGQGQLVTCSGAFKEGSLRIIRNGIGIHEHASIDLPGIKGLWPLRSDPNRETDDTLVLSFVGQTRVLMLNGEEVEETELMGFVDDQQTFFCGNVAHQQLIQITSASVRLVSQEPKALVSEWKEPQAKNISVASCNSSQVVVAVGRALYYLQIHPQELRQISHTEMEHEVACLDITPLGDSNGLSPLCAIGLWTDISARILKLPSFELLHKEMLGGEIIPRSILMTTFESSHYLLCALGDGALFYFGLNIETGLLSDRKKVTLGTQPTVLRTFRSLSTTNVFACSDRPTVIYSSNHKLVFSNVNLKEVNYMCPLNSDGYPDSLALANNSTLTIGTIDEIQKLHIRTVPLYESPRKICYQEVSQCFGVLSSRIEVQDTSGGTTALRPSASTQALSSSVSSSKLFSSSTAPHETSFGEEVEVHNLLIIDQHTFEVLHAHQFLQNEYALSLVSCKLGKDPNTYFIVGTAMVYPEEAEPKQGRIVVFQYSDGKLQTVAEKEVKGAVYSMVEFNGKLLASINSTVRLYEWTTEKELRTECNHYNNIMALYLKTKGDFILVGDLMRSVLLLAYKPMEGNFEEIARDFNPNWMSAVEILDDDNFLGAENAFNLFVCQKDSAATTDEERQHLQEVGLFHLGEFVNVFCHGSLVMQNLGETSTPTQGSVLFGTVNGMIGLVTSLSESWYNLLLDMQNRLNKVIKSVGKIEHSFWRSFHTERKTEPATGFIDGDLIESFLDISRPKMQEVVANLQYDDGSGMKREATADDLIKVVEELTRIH

Row | Structure (SMILES) | DC50 [nM] | Y
1 | C[C@H](NC(=O)c1ccc2c(c1)CN(C1CCC(=O)NC1=O)C2=O)c1cccc(C#N)c1 (some centres unmarked) [Example 11] | 100 to 500 | ** (a Y value (shown as**) of 20%<Y≤35%)
2 | O=C1CCC(N2Cc3cc(C(=O)N[C@H](c4ccc(Cl)cn4)C(F)(F)F)ccc3C2=O)C(=O)N1 (stereo partly drawn) [Example 109, N-((R)-1-(5-chloropyridin-2-yl)-2,2,2-trifluoroethyl)-2-(2,6-dioxopiperidin-3-yl)-1-oxoisoindoline-5-carboxamide] | < 100 | * (a Y value (shown as *) of 0<Y≤20%)
3 | O=C1CCC(N2Cc3cc(C(=O)N[C@H](c4ncccc4F)C(F)(F)F)ccc3C2=O)C(=O)N1 (stereo partly drawn) [Example 110, 2-(2,6-dioxopiperidin-3-yl)-1-oxo-N-((R)-2,2,2-trifluoro-1-(3-fluoropyridin-2-yl)ethyl)isoindoline-5-carboxamide] | < 100 | * (a Y value (shown as *) of 0<Y≤20%)
4 | O=C1CCC(N2Cc3cc(C(=O)N[C@H](c4ccc(F)cc4)C(F)(F)F)c(F)cc3C2=O)C(=O)N1 (stereo partly drawn) [Example 92, 2-(2,6-dioxopiperidin-3-yl)-6-fluoro-1-oxo-N-((R)-2,2,2-trifluoro-1-(4-fluorophenyl)ethyl)isoindoline-5-carboxamide] | 100 to 500 | ** (a Y value (shown as**) of 20%<Y≤35%)
5 | O=C1CCC(N2Cc3cc(C(=O)N[C@H](c4cccnc4)C(F)(F)F)ccc3C2=O)C(=O)N1 (stereo partly drawn) [Example 54, 2-(2,6-dioxopiperidin-3-yl)-1-oxo-N-((R)-2,2,2-trifluoro-1-(pyridin-3-yl)ethyl)isoindoline-5-carboxamide] | 100 to 500 | ** (a Y value (shown as**) of 20%<Y≤35%)
6 | C[C@]1(O)CC[C@H]([C@@H](NC(=O)c2ccc3c(c2)CN(C2CCC(=O)NC2=O)C3=O)C(F)(F)F)CC1 (stereo partly drawn) [Example 156, 2-(2,6-dioxopiperidin-3-yl)-1-oxo-N-((R)-2,2,2-trifluoro-1-((1r,4R)-4-hydroxy-4-methylcyclohexyl)ethyl)isoindoline-5-carboxamide] | 100 to 500 | * (a Y value (shown as *) of 0<Y≤20%)
7 | CN(C)Cc1ccc([C@@H](NC(=O)c2ccc3c(c2)CN(C2CCC(=O)NC2=O)C3=O)C(F)(F)F)cc1 (stereo partly drawn) [Example 141, N-((R)-1-(4-((dimethylamino)methyl)phenyl)-2,2,2-trifluoroethyl)-2-(2,6-dioxopiperidin-3-yl)-1-oxoisoindoline-5-carboxamide] | < 100 | * (a Y value (shown as *) of 0<Y≤20%)
8 | CC(F)(F)C(NC(=O)c1ccc2c(c1)CN(C1CCC(=O)NC1=O)C2=O)c1ccc(F)cc1 (centres unmarked) [Example 174, N-(2,2-difluoro-1-(4-fluorophenyl)propyl)-2-(2,6-dioxopiperidin-3-yl)-1-oxoisoindoline-5-carboxamide] | < 100 | * (a Y value (shown as *) of 0<Y≤20%)
9 | O=C1CC[C@H](N2Cc3cc(C(=O)N[C@H](c4ncccc4Cl)C(F)(F)F)ccc3C2=O)C(=O)N1 [Example 173, N-((R)-1-(3-chloropyridin-2-yl)-2,2,2-trifluoroethyl)-2-((S)-2,6-dioxopiperidin-3-yl)-1-oxoisoindoline-5-carboxamide] | < 100 | * (a Y value (shown as *) of 0<Y≤20%)
10 | CC(C)[C@H](NC(=O)c1ccc2c(c1)CN(C1CCC(=O)NC1=O)C2=O)c1ccccc1F (stereo partly drawn) [Example 167, 2-(2,6-dioxopiperidin-3-yl)-N-((S)-1-(2-fluorophenyl)-2-methylpropyl)-1-oxoisoindoline-5-carboxamide] | < 100 | * (a Y value (shown as *) of 0<Y≤20%)
11 | N#Cc1cccc([C@@H](NC(=O)c2ccc3c(c2)CN(C2CCC(=O)NC2=O)C3=O)C(F)(F)F)c1 (stereo partly drawn) [Example 64, N-((R)-1-(3-cyanophenyl)-2,2,2-trifluoroethyl)-2-(2,6-dioxopiperidin-3-yl)-1-oxoisoindoline-5-carboxamide] | < 100 | * (a Y value (shown as *) of 0<Y≤20%)
12 | CC1([C@@H](NC(=O)c2ccc3c(c2)CN(C2CCC(=O)NC2=O)C3=O)C(F)(F)F)CCC1 (stereo partly drawn) [Example 74, 2-(2,6-dioxopiperidin-3-yl)-1-oxo-N-((R)-2,2,2-trifluoro-1-(1-methylcyclobutyl)ethyl)isoindoline-5-carboxamide] | < 100 | * (a Y value (shown as *) of 0<Y≤20%)
13 | CC1([C@@H](NC(=O)c2ccc3c(c2)CN(C2CCC(=O)NC2=O)C3=O)C(F)(F)F)CCCC1 (stereo partly drawn) [Example 83, 2-(2,6-dioxopiperidin-3-yl)-1-oxo-N-((R)-2,2,2-trifluoro-1-(1-methylcyclopentyl)ethyl)isoindoline-5-carboxamide] | < 100 | * (a Y value (shown as *) of 0<Y≤20%)
14 | O=C1CCC(N2Cc3cc(C(=O)N[C@H]([C@H]4CC[C@@H](O)CC4)C(F)(F)F)ccc3C2=O)C(=O)N1 (stereo partly drawn) [Example 62, 2-(2,6-dioxopiperidin-3-yl)-1-oxo-N-((R)-2,2,2-trifluoro-1-((1s,4S)-4-hydroxycyclohexyl)ethyl)isoindoline-5-carboxamide] | 100 to 500 | * (a Y value (shown as *) of 0<Y≤20%)

More lines, now with the values ahead:

Row | DC50 [nM] | Y | Structure (SMILES)
15 | < 100 | * (a Y value (shown as *) of 0<Y≤20%) | C[C@H](NC(=O)c1ccc2c(c1)CN(C1CCC(=O)NC1=O)C2=O)c1ccccc1 (stereo partly drawn) [Example 1, 2-(2,6-Dioxopiperidin-3-yl)-1-oxo-N—((S)-1-phenylethyl)isoindoline-5-carboxamide]
16 | < 100 | * (a Y value (shown as *) of 0<Y≤20%) | O=C1CCC(N2Cc3cc(C(=O)N[C@H](c4cc(F)ccc4Cl)C(F)(F)F)ccc3C2=O)C(=O)N1 (stereo partly drawn) [Example 160, N-((R)-1-(2-chloro-5-fluorophenyl)-2,2,2-trifluoroethyl)-2-(2,6-dioxopiperidin-3-yl)-1-oxoisoindoline-5-carboxamide]
17 | < 100 | * (a Y value (shown as *) of 0<Y≤20%) | Cc1cccnc1[C@@H](NC(=O)c1ccc2c(c1)CN(C1CCC(=O)NC1=O)C2=O)C(F)(F)F (stereo partly drawn) [Example 199, 2-(2,6-dioxopiperidin-3-yl)-1-oxo-N-((R)-2,2,2-trifluoro-1-(3-methylpyridin-2-yl)ethyl)isoindoline-5-carboxamide]
18 | < 100 | * (a Y value (shown as *) of 0<Y≤20%) | O=C1CCC(N2Cc3cc(C(=O)N[C@H](c4ccc(Cl)cc4)C(F)(F)F)ccc3C2=O)C(=O)N1 (stereo partly drawn) [Example 42, N-((R)-1-(4-chlorophenyl)-2,2,2-trifluoroethyl)-2-(2,6-dioxopiperidin-3-yl)-1-oxoisoindoline-5-carboxamide]
19 | < 100 | ** (a Y value (shown as**) of 20%<Y≤35%) | CC(C)Oc1cccc([C@@H](NC(=O)c2ccc3c(c2)CN(C2CCC(=O)NC2=O)C3=O)C(F)(F)F)c1 (stereo partly drawn) [Example 102, 2-(2,6-dioxopiperidin-3-yl)-1-oxo-N-((R)-2,2,2-trifluoro-1-(3-isopropoxyphenyl)ethyl)isoindoline-5-carboxamide]
20 | < 100 | * (a Y value (shown as *) of 0<Y≤20%) | O=C1CCC(N2Cc3cc(C(=O)N[C@H](c4ccccc4CN4CCOCC4)C(F)(F)F)ccc3C2=O)C(=O)N1 (stereo partly drawn) [Example 155, 2-(2,6-dioxopiperidin-3-yl)-1-oxo-N-((R)-2,2,2-trifluoro-1-(2-(morpholinomethyl)phenyl)ethyl)isoindoline-5-carboxamide]
21 | 100 to 500 | * (a Y value (shown as *) of 0<Y≤20%) | CN1CCN(Cc2ccc([C@@H](NC(=O)c3ccc4c(c3)CN(C3CCC(=O)NC3=O)C4=O)C(F)(F)F)cc2)CC1 (stereo partly drawn) [Example 185, 2-(2,6-dioxopiperidin-3-yl)-1-oxo-N-((R)-2,2,2-trifluoro-1-(4-((4-methylpiperazin-1-yl)methyl)phenyl)ethyl)isoindoline-5-carboxamide]
22 | < 100 | * (a Y value (shown as *) of 0<Y≤20%) | CC(C)[C@H](NC(=O)c1ccc2c(c1)CN(C1CCC(=O)NC1=O)C2=O)c1ccccc1 (stereo partly drawn) [Example 154, 2-(2,6-dioxopiperidin-3-yl)-N-((S)-2-methyl-1-phenylpropyl)-1-oxoisoindoline-5-carboxamide]
23 | 100 to 500 | ** (a Y value (shown as**) of 20%<Y≤35%) | O=C1CCC(N2Cc3cc(C(=O)N[C@H](C4CCOCC4)C(F)(F)F)ccc3C2=O)C(=O)N1 (stereo partly drawn) [Example 36, 2-(2,6-dioxopiperidin-3-yl)-1-oxo-N-((R)-2,2,2-trifluoro-1-(tetrahydro-2H-pyran-4-yl)ethyl)isoindoline-5-carboxamide]
24 | 100 to 500 | ** (a Y value (shown as**) of 20%<Y≤35%) | O=C1CCC(N2Cc3cc(C(=O)N[C@H](CC(F)(F)F)c4ccc(F)cc4)ccc3C2=O)C(=O)N1 (stereo partly drawn) [Example 191, 2-(2,6-dioxopiperidin-3-yl)-1-oxo-N-((R)-3,3,3-trifluoro-1-(4-fluorophenyl)propyl)isoindoline-5-carboxamide]
25 | < 100 | * (a Y value (shown as *) of 0<Y≤20%) | O=C1CCC(N2Cc3cc(C(=O)N[C@H](c4c(F)cc(F)cc4Cl)C(F)(F)F)ccc3C2=O)C(=O)N1 (stereo partly drawn) [Example 203, N-((R)-1-(2-chloro-4,6-difluorophenyl)-2,2,2-trifluoroethyl)-2-(2,6-dioxopiperidin-3-yl)-1-oxoisoindoline-5-carboxamide]

From patent US11306101B2 (Celgene Corporation, priority 2019, dated 2022)
